Measured values published in ChEMBL document CHEMBL1147335, “New leukotriene B4 receptor antagonist: leucettamine A and related imidazole alkaloids from the marine sponge Leucetta microraphis” (J Nat Prod, 1993).
pIC50, pKi: −log10 of the molar value.

How the values were obtained:
[1] = molecular target: T1, Leukotriene B4 receptor 1 (Homo sapiens, UniProt Q15722); experiment: Binding affinity to LTB4 receptor in human U937 cells by whole cell assay; format: cell-based, U-937
[2] = molecular target: T1, Leukotriene B4 receptor 1; experiment: Antagonist activity at LTB4 receptor in fura-2 loaded human U937 cells assessed as inhibition of LTB4-induced calcium mobilization; format: functional, cell-based, U-937
[3] = molecular target: T1, Leukotriene B4 receptor 1; experiment: Displacement of [3H]LTB4 from LTB4 receptor expressed in human U937 cell membrane; format: cell membranes, U-937

T1 sequence (Q15722 whole entry): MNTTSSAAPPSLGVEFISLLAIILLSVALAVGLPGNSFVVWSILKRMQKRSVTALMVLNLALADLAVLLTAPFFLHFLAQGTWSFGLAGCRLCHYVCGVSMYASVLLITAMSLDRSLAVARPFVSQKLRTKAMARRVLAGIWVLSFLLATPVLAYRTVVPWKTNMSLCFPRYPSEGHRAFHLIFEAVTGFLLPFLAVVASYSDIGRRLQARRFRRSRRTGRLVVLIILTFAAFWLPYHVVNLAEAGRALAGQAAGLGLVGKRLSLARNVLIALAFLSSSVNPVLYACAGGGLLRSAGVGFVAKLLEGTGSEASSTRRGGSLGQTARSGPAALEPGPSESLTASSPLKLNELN

pIC50 [1]	pIC50 [2]	pIC50 [3]	pKi [3]	SMILES
6.12	5.34	5.40	5.89	Cn1c(N)nc(Cc2ccc3c(c2)OCO3)c1Cc1ccc2c(c1)OCO2 [LEUCETTAMINE A]
		4.81	5.28	CN1C(=N)N(C)/C(=N/c2nc(Cc3ccc4c(c3)OCO4)c(Cc3ccc4c(c3)OCO4)n2C)C1=O [LEUCETTAMIDINE]

SMILES	pIC50 [1]	pIC50 [2]	pIC50 [3]	pKi [3]
CN1C(=O)/C(=C/c2ccc3c(c2)OCO3)N=C1N [LEUCETTAMINE B]				4.00
